Literature values as cited in publication PMC7179450, “Primary Human Hepatocytes, But not HepG2 or Balb/c 3T3 Cells, Efficiently Metabolize Salinomycin and Are Resistant to Its Cytotoxicity” (Molecules, 2020).
Read-outs that look alike come from different tables or passages of the source.

Tested on: all tested cell models
Design: method as in PMID 30012479
Conditions: cited from earlier work

| SMILES | cytotoxicity at tested concentrations (prednisolone 1 µg/mL) | cytotoxicity at tested concentrations (tiamulin 1 or 10 µg/mL) |
| --- | --- | --- |
| C[C@]12C=CC(=O)C=C1CC[C@@H]1[C@@H]2[C@@H](O)C[C@@]2(C)[C@H]1CC[C@]2(O)C(=O)CO [prednisolone] | non-cytotoxic | – |
| C=C[C@]1(C)C[C@@H](OC(=O)CSCCN(CC)CC)[C@]2(C)[C@H](C)CC[C@]3(CCC(=O)[C@H]32)[C@@H](C)[C@@H]1O [tiamulin] | – | non-cytotoxic |
